Patent US11964953B2, “Substituted aminothiazoles as DGKzeta inhibitors for immune activation” (Bayer Aktiengesellschaft, priority 2020, dated 2024)

Biological target: human DGKζ (Homo sapiens (Human), UniProt Q13574)
Experiment: Human DGKζ kinase activity inhibition assay (ADP-Glo)
Type: biochemical
Conditions: in vitro human DGKζ kinase activity inhibition assay; read-out: IC50
Summary of the method: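 ADP-Glo luminescence, reflecting ADP produced, served as the readout of activity. Full-length human DGKζ, FLAG-tagged at the C-terminus and insect-cell expressed, was used; lipid substrate mix was sonicated with octyl-β-D-glucopyranoside in 50 mM MOPS pH 7.4.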

Sequence of human DGKζ (Q13574 other isoform, or with tags, fused parts or gaps): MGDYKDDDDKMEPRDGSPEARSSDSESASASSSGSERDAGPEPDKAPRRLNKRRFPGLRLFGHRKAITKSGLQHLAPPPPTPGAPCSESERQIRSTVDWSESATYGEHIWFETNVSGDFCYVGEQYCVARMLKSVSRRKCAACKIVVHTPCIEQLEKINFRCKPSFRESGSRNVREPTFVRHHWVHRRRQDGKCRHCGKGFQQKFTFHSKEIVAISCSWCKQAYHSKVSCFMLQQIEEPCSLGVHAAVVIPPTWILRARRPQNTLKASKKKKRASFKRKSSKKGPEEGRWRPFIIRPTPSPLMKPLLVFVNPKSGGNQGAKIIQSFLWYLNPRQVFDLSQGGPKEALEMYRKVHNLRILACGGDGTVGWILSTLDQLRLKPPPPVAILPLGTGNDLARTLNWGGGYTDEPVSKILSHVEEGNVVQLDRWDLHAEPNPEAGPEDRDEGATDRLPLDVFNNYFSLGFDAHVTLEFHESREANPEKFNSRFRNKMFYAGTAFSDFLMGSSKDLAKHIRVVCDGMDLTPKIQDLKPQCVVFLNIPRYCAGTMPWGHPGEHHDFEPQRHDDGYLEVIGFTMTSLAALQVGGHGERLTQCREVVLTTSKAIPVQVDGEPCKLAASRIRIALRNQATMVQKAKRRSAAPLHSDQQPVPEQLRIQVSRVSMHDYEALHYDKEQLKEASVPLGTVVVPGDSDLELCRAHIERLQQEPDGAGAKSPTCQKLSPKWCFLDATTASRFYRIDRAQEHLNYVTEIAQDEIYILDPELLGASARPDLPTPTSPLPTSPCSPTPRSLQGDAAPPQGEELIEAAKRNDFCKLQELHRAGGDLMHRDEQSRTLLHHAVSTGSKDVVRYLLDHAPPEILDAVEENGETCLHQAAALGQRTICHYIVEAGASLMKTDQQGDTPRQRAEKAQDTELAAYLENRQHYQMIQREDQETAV

| IC50 [nM] | Structure (SMILES) |
| --- | --- |
| 20.3 | CC(C(N)=O)N(c1ccc(F)c(F)c1)c1nc(N)c(C(=O)c2ccc(C(F)(F)F)nc2)s1 (single isomer, unassigned) [Example 53.1, 2-(N-[4-amino-5-[6-(trifluoromethyl)pyridine-3-carbonyl]thiazol-2-yl]-3,4-difluoro-anilino)propanamide] |
| 59 | CC(C(N)=O)N(c1ccc(OC(F)F)nc1)c1nc(N)c(C(=O)c2ccc(Cl)cc2)s1 (racemic) [Example 253, rac-2-[[4-amino-5-(4-chlorobenzoyl)thiazol-2-yl]-[6-(difluoromethoxy)-3-pyridyl]amino]propanamide] |
| 749 | CC(C(N)=O)N(c1ccc(F)c(OC(F)F)c1)c1nc(N)c(C(=O)c2ccccc2)s1 (racemic) [Example 237, rac-2-[N-(4-amino-5-benzoyl-thiazol-2-yl)-3-(difluoromethoxy)-4-fluoro-anilino]propanamide] |
| 1470 | CC(C(N)=O)N(c1nc(N)c(C(=O)c2ccc(OC(F)F)cc2)s1)c1ccc(Cl)cc1F (single isomer, unassigned) [Example 46.1, 2-(N-[4-amino-5-[4-(difluoromethoxy)benzoyl]thiazol-2-yl]-4-chloro-2-fluoro-anilino)propanamide] |
| 792 | CC(C(N)=O)N(c1ccc(F)cc1)c1nc(N)c(C(=O)c2ccc(OC(F)(F)F)cc2)s1 (single isomer, unassigned) [Example 40.1, 2-(N-[4-amino-5-[4-(trifluoromethoxy)benzoyl]thiazol-2-yl]-4-fluoro-anilino)propanamide] |
| 662 | CC(C(N)=O)N(c1ccc(C(F)F)cc1)c1nc(N)c(C(=O)c2ccncc2)s1 (racemic) [Example 246, rac-2-[N-[4-amino-5-(pyridine-4-carbonyl)thiazol-2-yl]-4-(difluoromethyl)anilino]propanamide] |
| 91 | CC(C(N)=O)N(c1ccc(OCc2ccccc2)cc1)c1nc(N)c(C(=O)c2ccc(OC(F)F)cc2)s1 (racemic) [Example 182, rac-2-(N-[4-amino-5-[4-(difluoromethoxy)benzoyl]thiazol-2-yl]-4-benzyloxy-anilino)propanamide] |
| 75.8 | CC(C(N)=O)N(c1ccc(F)cc1)c1nc(N)c(C(=O)c2ccc(OCC(=O)NCC(F)(F)F)cc2)s1 (racemic) [Example 99, rac-2-(N-[4-amino-5-[4-[2-oxo-2-(2,2,2-trifluoroethylamino)ethoxy]benzoyl]thiazol-2-yl]-4-fluoro-anilino)propanamide] |
| > 20000 | CC(C(N)=O)N(c1ccc(F)c(F)c1)c1nc(N)c(C(=O)c2cccnc2)s1 (single isomer, unassigned) [Example 184.2, 2-(N-[4-amino-5-(pyridine-3-carbonyl)thiazol-2-yl]-3,4-difluoro-anilino)propanamide] |
| 30.8 | CC(C(N)=O)N(c1ccc(F)c(F)c1)c1nc(N)c(C(=O)c2ccc(C(F)(F)F)nc2)s1 (racemic) [Example 53, rac-2-(N-[4-amino-5-[6-(trifluoromethyl)pyridine-3-carbonyl]thiazol-2-yl]-3,4-difluoro-anilino)propanamide] |
| 48.3 | COc1ccc(CNC(=O)COc2ccc(C(=O)c3sc(N(c4ccc(F)cc4)C(C)C(N)=O)nc3N)cc2)cc1 (racemic) [Example 124, rac-2-(N-[4-amino-5-[4-[2-[(4-methoxyphenyl)methylamino]-2-oxo-ethoxy]benzoyl]thiazol-2-yl]-4-fluoro-anilino)propanamide] |
| 740 | Cc1ccc(C(=O)c2sc(N(c3ccc(F)cc3)C(C)C(N)=O)nc2N)cn1 (racemic) [Example 6, rac-2-(N-[4-amino-5-(6-methylpyridine-3-carbonyl)thiazol-2-yl]-4-fluoro-anilino)propanamide] |
| 7.73 | CC(C(N)=O)N(c1ccc(Cl)cc1)c1nc(N)c(C(=O)c2ccc(Cl)cc2)s1 (single isomer, unassigned) [Example 41.2, 2-(N-[4-amino-5-(4-chlorobenzoyl)thiazol-2-yl]-4-chloro-anilino)propanamide] |
| 3 | CC(C(N)=O)N(c1ccc(F)cc1)c1nc(N)c(C(=O)c2ccc(NC(=O)OCc3ccccc3)cc2)s1 (single isomer, unassigned) [Example 169.1, Benzyl N-[4-[4-amino-2-(N-(2-amino-1-methyl-2-oxo-ethyl)-4-fluoro-anilino)thiazole-5-carbonyl]phenyl]carbamate] |
| 835 | Cc1nc(N(c2ccc(F)c(F)c2)C(C)C(N)=O)sc1C(=O)c1ccc(OC(F)F)cc1 (single isomer, unassigned) [Example 55.2, 2-(N-[5-[4-(difluoromethoxy)benzoyl]-4-methyl-thiazol-2-yl]-3,4-difluoro-anilino)propanamide] |
| 6790 | CC(C(N)=O)N(c1cccnc1)c1nc(N)c(C(=O)c2ccccc2)s1 (racemic) [Example 79, rac-2-[(4-amino-5-benzoyl-thiazol-2-yl)-(3-pyridyl)amino]propanamide] |

| IC50 [nM] | Structure (SMILES) |
| --- | --- |
| 618 | CC(C(N)=O)N(c1ccc(F)cc1)c1nc(N)c(C(=O)c2ccccc2F)s1 (racemic) [Example 8, rac-2-(N-[4-amino-5-(2-fluorobenzoyl)thiazol-2-yl]-4-fluoro-anilino)propanamide] |
| 364 | CC(C(N)=O)N(c1ccc(F)cc1)c1nc(N)c(C(=O)c2cccc(C#N)c2)s1 (racemic) [Example 12, rac-2-(N-[4-amino-5-(3-cyanobenzoyl)thiazol-2-yl]-4-fluoro-anilino)propanamide] |
| 22 | CC(C(N)=O)N(c1ccc(OC(F)F)c(F)c1)c1nc(N)c(C(=O)c2ccc(OC(F)F)cc2)s1 (racemic) [Example 207, rac-2-[N-[4-amino-5-[4-(difluoromethoxy)benzoyl]thiazol-2-yl]-4-(difluoromethoxy)-3-fluoro-anilino]propanamide] |
| 5180 | CC(C(N)=O)N(c1ccc(F)cc1)c1nc(N)c(C(=O)c2ccccc2)s1 (single isomer, unassigned) [Example 61.1, 2-(N-(4-amino-5-benzoyl-thiazol-2-yl)-4-fluoro-anilino)propanamide] |
| 667 | CC(C(N)=O)N(c1ccc(F)cc1)c1nc(N)c(C(=O)c2ccc(OCC(=O)N3CCOCC3)cc2)s1 (racemic) [Example 88, rac-2-(N-[4-amino-5-[4-(2-morpholino-2-oxo-ethoxy)benzoyl]thiazol-2-yl]-4-fluoro-anilino)propanamide] |
| 128 | CC(C(N)=O)N(c1ccc2c(c1)OCO2)c1nc(N)c(C(=O)c2ccccc2)s1 (racemic) [Example 196, rac-2-[(4-amino-5-benzoyl-thiazol-2-yl)-(1,3-benzodioxol-5-yl)amino]propanamide] |
| 33.9 | Cc1ccc(C(=O)c2sc(N(c3ccc(F)cc3)C(C)C(N)=O)nc2N)cc1 (racemic) [Example 63, rac-2-(N-[4-amino-5-(4-methylbenzoyl)thiazol-2-yl]-4-fluoro-anilino)propanamide] |
| 1020 | CC(C(N)=O)N(c1ccc(Cl)cc1)c1nc(N)c(C(=O)c2ccc(OC(F)F)cc2)s1 (single isomer, unassigned) [Example 47.1, 2-(N-[4-amino-5-[4-(difluoromethoxy)benzoyl]thiazol-2-yl]-4-chloro-anilino)propanamide] |
| 214 | CC(C(N)=O)N(c1ccc(F)cc1)c1nc(N)c(C(=O)c2ccc(C(F)F)nc2)s1 (racemic) [Example 159, rac-2-(N-[4-amino-5-[6-(difluoromethyl)pyridine-3-carbonyl]thiazol-2-yl]-4-fluoro-anilino)propanamide] |
| 7.08 | CC(C(N)=O)N(c1ccc(F)cc1)c1nc(N)c(C(=O)c2ccc(OC(F)(F)F)cc2)s1 (single isomer, unassigned) [Example 40.2, 2-(N-[4-amino-5-[4-(trifluoromethoxy)benzoyl]thiazol-2-yl]-4-fluoro-anilino)propanamide] |
| 8450 | CC(C(N)=O)N(c1ccc(F)c(Cl)c1)c1nc(N)c(C(=O)c2ccncc2)s1 (single isomer, unassigned) [Example 160.2, 2-(N-[4-amino-5-(pyridine-4-carbonyl)thiazol-2-yl]-3-chloro-4-fluoro-anilino)propanamide] |
| 40 | CC(C(N)=O)N(c1ccc(C(F)F)cc1)c1nc(N)c(C(=O)c2ccc(OC(F)F)nc2)s1 (racemic) [Example 247, rac-2-[N-[4-amino-5-[6-(difluoromethoxy)pyridine-3-carbonyl]thiazol-2-yl]-4-(difluoromethyl)anilino]propanamide] |
| 382 | CC(C(N)=O)N(c1nc(N)c(C(=O)c2ccccc2)s1)c1ccc(OC(F)F)cc1F (racemic) [Example 241, rac-2-[N-(4-amino-5-benzoyl-thiazol-2-yl)-4-(difluoromethoxy)-2-fluoro-anilino]propanamide] |
| 6 | CC(C(N)=O)N(c1ccc(F)cc1)c1nc(N)c(C(=O)c2ccc(C(=O)NCc3ccccc3)cc2)s1 (racemic) [Example 262, rac-4-[4-amino-2-(N-(2-amino-1-methyl-2-oxo-ethyl)-4-fluoro-anilino)thiazole-5-carbonyl]-N-benzyl-benzamide] |
| 70 | COc1ccc(C(=O)c2sc(N(c3ccc(OC(F)F)c(Cl)c3)C(C)C(N)=O)nc2N)cc1 (racemic) [Example 200, rac-2-[N-[4-amino-5-(4-methoxybenzoyl)thiazol-2-yl]-3-chloro-4-(difluoromethoxy)anilino]propanamide] |

| Structure (SMILES) | IC50 [nM] |
| --- | --- |
| CC(C(N)=O)N(c1ccc(F)cc1)c1nc(N)c(C(=O)c2ccc(C(F)(F)F)nc2)s1 (single isomer, unassigned) [Example 29.1, 2-(N-[4-amino-5-[6-(trifluoromethyl)pyridine-3-carbonyl]thiazol-2-yl]-4-fluoro-anilino)propanamide] | 12500 |
| COc1ccc(C(=O)c2sc(N(c3ccc(F)cc3)C(C)C(N)=O)nc2C)cc1 (single isomer, unassigned) [Example 176.2, 2-(4-fluoro-N-[5-(4-methoxybenzoyl)-4-methyl-thiazol-2-yl]anilino)propanamide] | 672 |
